Test results reported in patent publication US6395728B2, “Method of treatment and pharmaceutical composition” (Novartis AG, priority 1999, dated 2002).

System: diabetic SHRs
Assay: Survival of streptozotocin-induced diabetic SHRs under drug treatment
Type: in vivo, rat
Settings: week 21 of treatment
Experimental: Diabetes is induced in SHRs aged about 6 to 8 weeks weighing about 250 to 300 g by treatment e.g. with streptozotocin. The drugs are administered by twice daily average. Untreated diabetic SHRs are used as control group (group 1). Other groups of diabetic SHRs are treated with 30 mg/kg of valsartan (group 2), with 20 mg/kg of verapamil (group 3) and with a combination of 20 mg/kg of valsartan and 15 mg/kg of verapamil (group 4). On a regular basis, besides other parameters the survival rate after 21 weeks of treatment is being monitored.

## COc1ccc(CCN(C)CCCC(C#N)(c2ccc(OC)c(OC)c2)C(C)C)cc1OC (centres unmarked) [verapamil]
20 mg/kg of verapamil (group 3)
  Survival Rate: 42.9%

## CCCCC(=O)N(Cc1ccc(-c2ccccc2-c2nnn[nH]2)cc1)[C@H](C(=O)O)C(C)C [valsartan, (S)-N-(1-carboxy-2-methyl-prop-1-yl)-N-pentanoyl-N-[2′(1H-tetrazol-5-yl)biphenyl-4-yl-methyl]amine]
30 mg/kg of valsartan (group 2)
  Survival Rate: 45.9%
